In the supplement of paper PMC11451515:

Columns and labels:
Conditions in all cases: 48 h
SEM cells [1] = assay: AUC of viability dose-response curve (% viability x log10 dose units); higher = less sensitive
How it was run: (§1)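 Library compounds in DMSO were applied for 48 h at 37°C at 11 threefold doses (47 μM to 0.79 nM) to medium-adapted leukemia cells in 1536-well plates holding 500 or 1000 cells/well. Luminescence from CellTiter-Glo One was normalised plate by plate against DMSO and cell-free wells. Area under the curve came from trapezoidal integration of a log-logistic fit, after scaling curves that rose above full viability and discarding those that failed quality control. The fit had four parameters and used log10 doses.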

NOMO1 [2] = assay: as above
How it was run: as §1

P12-Ichikawa [3] = assay: as above
How it was run: as §1

SEM cells [4] = assay: cell viability relative to DMSO control; higher = less cytotoxic
How it was run: (§2)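 Viability values are per-plate percentages of DMSO wells, with background from cell-free wells. Library compounds in DMSO were pin-dosed, in an 11-point threefold series from 47 μM to 0.79 nM, onto NOMO1 or SEM (500 cells/well) or P12-Ichikawa (1000 cells/well) leukemia cells in 1536-well plates (5 μl). Those cells had been adapted for at least four passages in each medium, and CellTiter-Glo One luminescence was read after 48 h at 37°C.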

NOMO1 [5] = assay: as above
How it was run: as §2

P12-Ichikawa [6] = assay: as above
How it was run: as §2

FC(F)(F)c1ccc(Nc2nc3cc(Oc4ccnc(-c5ncc(C(F)(F)F)[nH]5)c4)ccc3[nH]2)cc1
AUC of viability dose-response curve
Conditions | NOMO1 [2] | P12-Ichikawa [3] | SEM cells [1]
HPLM + 10% dialyzed FBS | 472 | 465 | 442
RPMI 5 mM glucose + 10% FBS | 466 | 460 | 439
RPMI 5 mM glucose + 10% dialyzed FBS | 476 | 458 | 420

cell viability [%]
Conditions | NOMO1 [5] | P12-Ichikawa [6] | SEM cells [4]
HPLM + 10% dialyzed FBS, 0.000781 µM | – | 118 | 108
HPLM + 10% dialyzed FBS, 0.00234 µM | – | 111 | 97.7
HPLM + 10% dialyzed FBS, 0.00702 µM | – | 115 | 112
HPLM + 10% dialyzed FBS, 0.0211 µM | – | 120 | 116
HPLM + 10% dialyzed FBS, 0.0632 µM | – | 122 | 121
HPLM + 10% dialyzed FBS, 0.19 µM | – | 115 | 117
HPLM + 10% dialyzed FBS, 0.569 µM | – | 117 | 118
HPLM + 10% dialyzed FBS, 1.71 µM | – | 123 | 121
HPLM + 10% dialyzed FBS, 5.12 µM | – | 118 | 106
HPLM + 10% dialyzed FBS, 15.4 µM | – | 112 | 82.7
HPLM + 10% dialyzed FBS, 46.1 µM | – | 71.3 | 18.4
RPMI 5 mM glucose + 10% FBS, 0.000781 µM | – | 119 | 120
RPMI 5 mM glucose + 10% FBS, 0.00234 µM | – | 119 | 114
RPMI 5 mM glucose + 10% FBS, 0.00702 µM | – | 127 | 117
RPMI 5 mM glucose + 10% FBS, 0.0211 µM | – | 123 | 113
RPMI 5 mM glucose + 10% FBS, 0.0632 µM | – | 130 | 125
RPMI 5 mM glucose + 10% FBS, 0.19 µM | – | 122 | 117
RPMI 5 mM glucose + 10% FBS, 0.569 µM | – | 127 | 100
RPMI 5 mM glucose + 10% FBS, 1.71 µM | – | 137 | 120
RPMI 5 mM glucose + 10% FBS, 5.12 µM | – | 130 | 114
RPMI 5 mM glucose + 10% FBS, 15.4 µM | – | 111 | 80.8
RPMI 5 mM glucose + 10% FBS, 46.1 µM | – | 67.8 | 4.03
RPMI 5 mM glucose + 10% dialyzed FBS, 0.000781 µM | 109 | – | –
RPMI 5 mM glucose + 10% dialyzed FBS, 0.00234 µM | 124 | – | –
RPMI 5 mM glucose + 10% dialyzed FBS, 0.00702 µM | 136 | – | –
RPMI 5 mM glucose + 10% dialyzed FBS, 0.0211 µM | 133 | – | –
RPMI 5 mM glucose + 10% dialyzed FBS, 0.0632 µM | 136 | – | –
RPMI 5 mM glucose + 10% dialyzed FBS, 0.19 µM | 132 | – | –
RPMI 5 mM glucose + 10% dialyzed FBS, 0.569 µM | 131 | – | –
RPMI 5 mM glucose + 10% dialyzed FBS, 1.71 µM | 145 | – | –
RPMI 5 mM glucose + 10% dialyzed FBS, 5.12 µM | 130 | – | –
RPMI 5 mM glucose + 10% dialyzed FBS, 15.4 µM | 148 | – | –
RPMI 5 mM glucose + 10% dialyzed FBS, 46.1 µM | 89.3 | – | –

COc1cc2c(Nc3ccc(NC(=O)c4ccccc4)cc3)ncnc2cc1OCCCN1CCOCC1
AUC of viability dose-response curve
Conditions | NOMO1 [2] | P12-Ichikawa [3] | SEM cells [1]
HPLM + 10% dialyzed FBS | 456 | 383 | 396
RPMI 5 mM glucose + 10% FBS | 417 | 390 | 389
RPMI 5 mM glucose + 10% dialyzed FBS | 425 | 386 | 385

cell viability [%]
Conditions | NOMO1 [5] | P12-Ichikawa [6] | SEM cells [4]
HPLM + 10% dialyzed FBS, 0.000781 µM | 122 | 116 | 105
HPLM + 10% dialyzed FBS, 0.00234 µM | 124 | 123 | 119
HPLM + 10% dialyzed FBS, 0.00702 µM | 128 | 122 | 124
HPLM + 10% dialyzed FBS, 0.0211 µM | 126 | 125 | 140
HPLM + 10% dialyzed FBS, 0.0632 µM | 137 | 131 | 130
HPLM + 10% dialyzed FBS, 0.19 µM | 133 | 133 | 133
HPLM + 10% dialyzed FBS, 0.569 µM | 144 | 135 | 123
HPLM + 10% dialyzed FBS, 1.71 µM | 122 | 125 | 105
HPLM + 10% dialyzed FBS, 5.12 µM | 103 | 45 | 56.8
HPLM + 10% dialyzed FBS, 15.4 µM | 114 | 15 | 44.5
HPLM + 10% dialyzed FBS, 46.1 µM | 115 | 15.6 | 40.6
RPMI 5 mM glucose + 10% FBS, 0.000781 µM | – | – | 122
RPMI 5 mM glucose + 10% FBS, 0.00234 µM | – | – | 127
RPMI 5 mM glucose + 10% FBS, 0.00702 µM | – | – | 112
RPMI 5 mM glucose + 10% FBS, 0.0211 µM | – | – | 140
RPMI 5 mM glucose + 10% FBS, 0.0632 µM | – | – | 136
RPMI 5 mM glucose + 10% FBS, 0.19 µM | – | – | 124
RPMI 5 mM glucose + 10% FBS, 0.569 µM | – | – | 144
RPMI 5 mM glucose + 10% FBS, 1.71 µM | – | – | 122
RPMI 5 mM glucose + 10% FBS, 5.12 µM | – | – | 55
RPMI 5 mM glucose + 10% FBS, 15.4 µM | – | – | 25.9
RPMI 5 mM glucose + 10% FBS, 46.1 µM | – | – | 22.4

COCCOC(=O)C/1=C(C)/NC/2=C(C1C3=CC=CC(=C3)O)/C(=O)CC(C2)C4=C(OC)C=CC=C4 (stereo not given)
AUC of viability dose-response curve
Conditions | NOMO1 [2] | P12-Ichikawa [3] | SEM cells [1]
HPLM + 10% dialyzed FBS | 454 | 450 | 425
RPMI 5 mM glucose + 10% FBS | 469 | 451 | 415
RPMI 5 mM glucose + 10% dialyzed FBS | 467 | 448 | 413

cell viability [%]
Conditions | NOMO1 [5] | P12-Ichikawa [6] | SEM cells [4]
HPLM + 10% dialyzed FBS, 0.000781 µM | 96.9 | 94.3 | 90.2
HPLM + 10% dialyzed FBS, 0.00234 µM | 105 | 97.9 | 80.6
HPLM + 10% dialyzed FBS, 0.00702 µM | 93.2 | 102 | 106
HPLM + 10% dialyzed FBS, 0.0211 µM | 118 | 105 | 108
HPLM + 10% dialyzed FBS, 0.0632 µM | 116 | 110 | 98.2
HPLM + 10% dialyzed FBS, 0.19 µM | 104 | 100 | 87.7
HPLM + 10% dialyzed FBS, 0.569 µM | 124 | 106 | 100
HPLM + 10% dialyzed FBS, 1.71 µM | 97.9 | 105 | 101
HPLM + 10% dialyzed FBS, 5.12 µM | 102 | 91.5 | 94.3
HPLM + 10% dialyzed FBS, 15.4 µM | 87.5 | 86.7 | 57
HPLM + 10% dialyzed FBS, 46.1 µM | 59.3 | 26.8 | 30.1
RPMI 5 mM glucose + 10% FBS, 0.000781 µM | 82.5 | 103 | 98.9
RPMI 5 mM glucose + 10% FBS, 0.00234 µM | 89.6 | 102 | 96.8
RPMI 5 mM glucose + 10% FBS, 0.00702 µM | 110 | 104 | 97.8
RPMI 5 mM glucose + 10% FBS, 0.0211 µM | 118 | 112 | 126
RPMI 5 mM glucose + 10% FBS, 0.0632 µM | 119 | 118 | 103
RPMI 5 mM glucose + 10% FBS, 0.19 µM | 99.7 | 110 | 90.6
RPMI 5 mM glucose + 10% FBS, 0.569 µM | 99.7 | 113 | 115
RPMI 5 mM glucose + 10% FBS, 1.71 µM | 99.5 | 101 | 90.8
RPMI 5 mM glucose + 10% FBS, 5.12 µM | 97.3 | 96.3 | 78.5
RPMI 5 mM glucose + 10% FBS, 15.4 µM | 96.9 | 89.5 | 45.6
RPMI 5 mM glucose + 10% FBS, 46.1 µM | 78.5 | 54.1 | 24.4
RPMI 5 mM glucose + 10% dialyzed FBS, 0.000781 µM | 89.4 | 94.8 | 80.8
RPMI 5 mM glucose + 10% dialyzed FBS, 0.00234 µM | 105 | 97.9 | 79.2
RPMI 5 mM glucose + 10% dialyzed FBS, 0.00702 µM | 99.7 | 91.7 | 122
RPMI 5 mM glucose + 10% dialyzed FBS, 0.0211 µM | 99.6 | 104 | 104
RPMI 5 mM glucose + 10% dialyzed FBS, 0.0632 µM | 114 | 101 | 105
RPMI 5 mM glucose + 10% dialyzed FBS, 0.19 µM | 109 | 104 | 82.4
RPMI 5 mM glucose + 10% dialyzed FBS, 0.569 µM | 112 | 101 | 102
RPMI 5 mM glucose + 10% dialyzed FBS, 1.71 µM | 99.2 | 94.7 | 101
RPMI 5 mM glucose + 10% dialyzed FBS, 5.12 µM | 109 | 87.6 | 74.1
RPMI 5 mM glucose + 10% dialyzed FBS, 15.4 µM | 91.4 | 88.1 | 50.9
RPMI 5 mM glucose + 10% dialyzed FBS, 46.1 µM | 85.2 | 46.8 | 21.7
